We go through three molecules from patent US11939302B2, “Compounds for the treatment of Alzheimer's disease” (The Governors of the University of Alberta, priority 2020, dated 2024).

No end group written: not given here.

One test concerns Aβ toxicity. The note with it: Jhamandas et al., 2004; 2011; 2012; cited from earlier work.
In a further test the test system is long-term potentiation. The note with it: hippocampus of TgCRND8 mice; Kimura et al., 2012; 2016; cited from earlier work.
The target of test [1] is T1, amylin receptor subtype 3 (AMY3) (Homo sapiens, UniProt O60896+P30988).
T1 construct: expressed in transfected cells
T1 sequence (P30988 25-474): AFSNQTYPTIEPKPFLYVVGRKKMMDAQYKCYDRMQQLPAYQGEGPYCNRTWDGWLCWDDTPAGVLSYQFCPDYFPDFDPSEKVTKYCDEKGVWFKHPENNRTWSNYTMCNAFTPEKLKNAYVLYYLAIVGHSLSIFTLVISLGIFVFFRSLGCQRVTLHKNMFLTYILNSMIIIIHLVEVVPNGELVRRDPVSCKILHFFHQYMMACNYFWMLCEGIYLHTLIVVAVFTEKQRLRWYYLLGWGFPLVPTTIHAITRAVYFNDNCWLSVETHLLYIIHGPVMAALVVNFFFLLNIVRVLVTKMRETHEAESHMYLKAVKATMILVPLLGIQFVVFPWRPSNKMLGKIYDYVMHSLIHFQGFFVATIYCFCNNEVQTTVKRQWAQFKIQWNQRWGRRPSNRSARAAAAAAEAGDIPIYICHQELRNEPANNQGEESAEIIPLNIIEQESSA
T1 sequence (O60896 24-148 partner): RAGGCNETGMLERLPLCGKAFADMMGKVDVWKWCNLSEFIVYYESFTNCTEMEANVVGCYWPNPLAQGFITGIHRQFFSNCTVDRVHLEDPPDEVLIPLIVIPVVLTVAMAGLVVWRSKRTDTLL
The test can be described thus: cAMP ELISA in AMY3-HEK cells, reduction of human amylin induced cAMP. The class given is cell-based. Conditions: FIG. 2; for Mode of action indicated by cAMP assays in amylin receptor subtype 3 expressing cells: AMY3 expressing cells; for Human amylin generation of cAMP in the presence of compound: human amylin 0.1 μM, compound 10 μM, AMY3-HEK cells. On the procedure:
Compounds described herein were screened using a cAMP (cyclic adenosine monophosphate) assay in amylin receptor subtype 3 expressing cells (See FIG. 1).
Cell Cultures. Amylin receptor subtypes (AMY3-HEK cells) stably expressed in human embryonic kidney (HEK293) cell-line were generated and characterized as described in a previous published article (Fu et al., J. Biol. Chem. 2012). The AMY3-HEK cells were grown in a 5% CO2 humidified incubator at 37° C. with DMEM, 10% FBS, and 100 μg/mL Zeocin medium.
ELISA (enzyme-linked immunosorbent assay). Cellular cAMP levels were measured using a parameter cyclic AMP assay kit (R&D Systems) according to the manufacturer's instructions. Briefly, AMY3-HEK cells were plated on 24-well plates overnight. These cells were then incubated with or without the assay compounds and hAmylin for 5 min. The cells were lysed with lysis buffer provided in the assay kit. Standard curves were plotted using the cAMP standards provided in the ELISA kits. All samples were analyzed in duplicate. The plate was measured at 450 nm. Data was plotted, and non-linear regression was fitted with four parameters using Prism software (GraphPad Software, La Jolla, CA).
Compounds were assayed based on potency of reduction at 10 μM of 0.1 μM human Amylin (hAmylin) induced cAMP increases.
Background: An ELISA detects its analyte on a solid surface through an enzyme-linked reagent.

Test [2] deals with T1, amylin receptor subtype 3 (AMY3). Description: Kinetic intracellular Ca2+ changes (Fluo-8L-AM) in AMY3-HEK293 cells. The class given is cell-based. Conditions: human amylin 0.5 μM; compound 0.01-10 μM range; FIG. 3. The procedure:
Kinetic Intracellular Ca^2+ Changes. Dynamic changes of the free cytosolic Ca2+ concentration were monitored with microplate reader. For monitor amylin induced intracellular Ca^2+, AMY3-HEK293 cells were plated on 96 well cell culture plates and incubated at 37° C. for 12-36 h with DMEM, 10% FBS, and Zeocin medium. For Ca^2+ changes, the AMY3-HEK293 cells were washed twice with assay solution which ion content similar to extracellular brain fluid thus containing the following: 130 mM NaCl, 4 mM KCl, 1 mM MgCl2, 2 mM CaCl2), 10 mM HEPES, and 10 mM glucose (pH 7.35). Then incubated with the membrane-permeant fluorescent Ca^2+-sensitive dye Fluo-8L-AM (AAT Bioquest, Inc., Sunnyvale, CA), with 5 μM of the agent for 40 min at room temperature (20-23° C.) in assay solution. The test compounds were added in various concentrations of 0.01, 0.1, 1, and 10 μM for 10 min and kinetic measured the fluorescent intensity with Varioskan-LUX microplate reader (Thermo Fisher Scientific, Waltham, MA). Human amylin were dissolved in sterile bidistilled water at 1 mM stock solution and incubated at room temperature for 10 min before dilution with assay solution for use at a final concentration of 0.5 μM. Fluorescent intensity was measured at excitation/emission wavelength of 488/514 nm, excitation bandwidth 12 nm, kinetic interval 1 min, and measure time at 100 ms. […]

For another test, the system named is N2a neuronal cells. Description: MTT cell death assay, amyloid beta toxicity. Conditions: N2a cell line; Aβ1-42 10 μM, soluble oligomeric; 24-48 h; FIG. 4. Format: cell-based, mouse. On the procedure:
MTT Cell Death Assay. The N2a (mouse) and SK-N-SH (human) neuronal cells were seeded to 5000 cells/well in a 96-well plate in DMEM medium, 10% FBS and incubated overnight. Cells in culture medium were incubated either with or without the assay compounds and Aβ1-42, 10 μM for 24-48 h. At the end of treatment, 20 μL of 5 mg/mL 3-(4,5-dimethylthiazol-2-yl)-2,5-diphenyltetrazolium bromide (MTT, Sigma) was added to each well and incubated at 37° C. for 3 h. Medium was removed, 100 μL of MTT solvent (isopropanol with 4 mM HCl) was added to each well, and the plates were incubated for 30 min at room temperature on a rotating shaker. Plates were analyzed on a microplate reader at a 562 nm wavelength.

For test [3], the system named is hippocampal long term potentiation (LTP). The test can be described thus: Hippocampal long term potentiation (LTP) electrophysiology in brain slices. The note with it: for LTP levels in hippocampal slices from transgenic AD mice (TgCRND8), chronically depressed LTP: compared with age matched wild type control (WT_Cont); for Effect on LTP from wild type control (WT_Cont) mice: WT_Cont slices; for Amyloid beta (Aβ)-induced depression of LTP / Human amylin-induced depression of LTP: compound 1 μM, brain hippocampal slices. Set-up: species or system mice. The text has this: Hippocampal long term potentiation (LTP) electrophysiology experiments: an in vitro cellular surrogate for memory. Brains were quickly removed from mice following decapitation, placed in a cold artificial cerebral spinal fluid (aCSF) on a vibratome chamber and transverse sections cut through the hippocampus. The aCSF contained (in mM) 124 NaCl, 3 KCl, 2.4 CaCl2), 2 MgCl2, 1.25 NaH2PO4, 26 NaHCO3 and 10 D-glucose, and was equilibrated with 95% 02 and 5% CO2. Hippocampal slices ([…]) were maintained in aCSF-filled holding chamber at room temperature for at least 1 hour and individually transferred to the submerged glass bottom recording chamber, which was constantly perfused with aCSF (2 mL/min) at 30° C. Field excitatory postsynaptic potential (fEPSP) was recorded with a metallic (Pt/Ir) electrode (FHC, Bowdoin, ME) from the stratum radiatum layer of Cornu ammonis 1 region of the hippocampus (CA1) area, and the Schaffer collateral afferents were stimulated with 100-μs test pulses via a bipolar cluster electrode (FHC) (Kimura et al., 2012, Kimura et al. 2016). To evaluate basal synaptic transmission, we applied different stimulation strengths (75 μA to 300 μA in steps of 25 μA) and plotted the amplitudes of presynaptic fiber volleys versus the corresponding fEPSP slopes to compare the slope of input/output (I/O) curves of fEPSP. For long-term potentiation (LTP) experiments, the stimulus strength was set to elicit 40-50% of the maximum fEPSP amplitude and test pulses were delivered to Schaffer collaterals once every 30 seconds. LTP was induced by 3-theta-burst stimulation (3-TBS) protocol (each burst consisted of 4 pulses at 100 Hz with a 200-ms inter-burst interval). Before 3-TBS or drug application, the responses were monitored for at least 10 minutes to ensure a stable baseline of fEPSP. […] Results were from various treatment groups were plotted as histograms with means±standard error (SE). Statistical analysis was performed using one-way ANOVA followed by post-hoc Tukey's honestly significant difference (HSD) test (for multiple comparisons) or Student's t test (for pair-wise comparisons). All drugs and chemicals were applied directly to the slice via bath perfusion, which allowed for a complete exchange of the perfusate in less than a minute and a half.

Regarding “AC253: peptide antagonist of the amylin receptor, 24 amino acids, SEQ ID NO: 1 (Ac-LGRLSQELHRLQTYPRTNTGSNTY)”, the “Neuroprotection against Aβ toxicity” value in the test with Aβ toxicity is given as “neuroprotective”. The “Aβ- or human amylin-induced depression of long-term potentiation” value in the test on long-term potentiation is “reverse impairment”.

Take `O=c1[nH]c2ccccc2n(CCCO)c1=O` [Compound 1, 1-(3-hydroxypropyl)-1,4-dihydroquinoxaline-2,3-dione]: in test [1], the “Mode of action indicated by cAMP assays in amylin receptor subtype 3 expressing cells” value is given as “amylin receptor antagonists” and the “Human amylin generation of cAMP in the presence of compound” value is “attenuated”. Moreover, in test [2], the “Elevations in intracellular calcium evoked by human amylin” value was “attenuated”. For the same molecule, in the test on N2a neuronal cells, the “Cytoprotection against amyloid beta (Abeta) toxicity, cell viability by MTT” value is “cytoprotective”. In test [3], the “LTP levels in hippocampal slices from transgenic AD mice (TgCRND8), chronically depressed LTP” value is recorded as “increased LTP levels”; the “Effect on LTP from wild type control (WT_Cont) mice” value is listed as “no effects”; the “Amyloid beta (Aβ)-induced depression of LTP” value was “blocked”; the “Human amylin-induced depression of LTP” value is given as “blocked”.

Consider `O=C1CN(C(=O)CCO)c2ccccc2N1` [Compound 10, 4-(3-hydroxypropanoyl)-3,4-dihydroquinoxalin-2(1H)-one], for which, in test [1], the “Mode of action indicated by cAMP assays in amylin receptor subtype 3 expressing cells” value is recorded as “amylin receptor antagonists” and the “Human amylin generation of cAMP in the presence of compound” value is “attenuated”. For the same molecule, the “Elevations in intracellular calcium evoked by human amylin” value in test [2] is given as “attenuated”. Also, the “Cytoprotection against amyloid beta (Abeta) toxicity, cell viability by MTT” value in the test with N2a neuronal cells is recorded as “cytoprotective”. In addition, in test [3], the “LTP levels in hippocampal slices from transgenic AD mice (TgCRND8), chronically depressed LTP” value was “increased LTP levels to levels observed in WT_Cont mice”; the “Effect on LTP from wild type control (WT_Cont) mice” value is recorded as “no effects”; the “Amyloid beta (Aβ)-induced depression of LTP” value is reported as “blocked”; the “Human amylin-induced depression of LTP” value is on record as “blocked”.
